Test results taken from patent US10111842B2, “Eutectic solvents and uses thereof” (UNIVERSITY OF OSLO, priority 2014, dated 2018).

What was measured:
[1] = Polarity (ENR) testing with Nile red; format: physicochemical; details: Nile red absorption maximum
Description: Polarity (ENR) testing of NADES was performed with Nile red (NR) as a solvatochromatic probe. A small amount of NR was added to each deep eutectic solvent. The recorded absorption maximum (λmax) of NR was applied in the formula ENR (kcal/mol^−1)=hcλmaxNA=28591/λmax where h is Planck's constant, c is the velocity of light and NA is Avogadro's number (Ogihara W, et al., Chem Lett 2004; 33: 1414-1415; Saxena R, et al., Chem Phys Lipids 2014; 183: 1-8).

[2] = test system: S. epidermidis (ATCC 35984); assay: Phototoxicity studies, blue light 9.5 J/cm^2 or dark (Example 7); format: cell-based, Staphylococcus epidermidis; details: ±SD, n = 4; for % survival (9.5 J/cm^2): Dilution 1:200, blue light; for % survival (dark): Dilution 1:200, no irradiation
Description: (§1) The overnight cultures were centrifuged (4000 g, 22° C., 10 min), the medium replaced and diluted with PBS to OD600 0.03. The bacterial suspensions were mixed 1:1 with the samples described in the previous paragraph. A volume of 200 μl from each sample was transferred to the first and seventh well on each row on a 96 well plate (Nunclon sterile 96 well plate with lid, Thermo Fischer Scientific, Waltham, Mass.). Two identical plates were made each time, one for light treatment and one for dark controls. The plates containing E. faecalis or S. aureus samples were incubated for 10 min (37° C.), irradiated with blue light for 10 min (corresponding to 9.5 J/cm^2±10%) and incubated again for 10 min (37° C.). The plates containing E. coli samples were incubated for 30 min (37° C.), irradiated with blue light for 30 min (corresponding to 27 J/cm^2±10%) and incubated again for 30 min (37° C.). The plates containing the dark controls were treated similarly, but covered with aluminium foil during the irradiation period and placed beside the irradiation chamber. […] After treatment, the samples were diluted according to the 6×6 drop plate procedure, modified to 4×4 (each treatment was performed with four parallels). A volume of 15 μl from each dilution was then plated onto TSB agar plates, left to dry for a few minutes and incubated overnight (37° C.). Viable colony forming units (CFU)/ml were calculated by counting the CFUs, multiplying with the dilution factor and dividing by the application volume.
(§2) The concentrations were adjusted give a final concentration of 1-20 nM porphyrin in the bacterial suspension after dilution with PBS (see Table 9). Aqueous solutions of 2.7 M citric acid, 2.3 M xylitol, 2.5 M sucrose, 5 M choline chloride and pure NADES, respectively, were used to investigate the toxicity of the individual compounds and NADES without a photosensitiser. The concentrations of the excipients were the same as in the respective NADES after evaporation of unbound water. The solutions were diluted totally 1:200 (or more) in the bacterial studies.
(§3) The treatments were performed with four parallels.
(§4) Gram-positive bacteria are generally considered to be more susceptible to photodynamic therapy than Gram-negative bacteria. Therefore, S. epidermidis was incubated for 10 min (37° C.), irradiated with blue light for 10 min (9.5 J/cm^2) and incubated again for 10 min while K. pneumoniae and P. aeruginosa were incubated for 30 min (37° C.), irradiated with blue light for 30 min (27 J/cm^2) and incubated again for 30 min.

[3] = test system: Enterococcus faecalis (ATCC 19433); assay: Bacterial studies, blue light 9.5 J/cm^2 or dark, drop plate CFU (Examples 4-6); format: cell-based
Description: (§5) Briefly, the components were mixed and dissolved in warm water (˜50° C.) before evaporation of the solvent at 45° C. for 15 min with a rotatory evaporator. The resulting NADES were transferred to polypropylene tubes with a tight cap. The individual components of each NADES were also prepared as solutions in MilliQ water in a concentration similar to the concentration in the final NADES preparation. All samples were diluted 1:1 with bacterial suspension (OD600 0.03) or 1:50, 1:100 and 1:200 with phosphate buffered saline (PBS, pH 7.4, Lonza, Verviers, Belgium) prior to dilution 1:1 with the bacterial suspension immediately before the bacterial studies.
as §1
(§6) Briefly, the components of each NADES (see Table 7) were mixed and dissolved in a round flask with 50 ml of warm water (˜50° C.) before evaporation of the solvent at 45° C. for 15 min with a rotatory evaporator. TMAP (Frontier Scientific, Inc., Logan, Utah, USA) was then added to each NADES. […] The final concentration of TMAP was 1 nM. Samples of TMAP were also prepared in purified water (MilliQ) to be 1 nM after dilution 1:200 with PBS (pH 7.4, Lonza, Verviers, Belgium) or with a 6.8 mM citric acid solution (pH ˜4) and bacterial suspension.
(§7) TCPP (Frontier Scientific, Inc., Logan, Utah, USA) was added to each NADES. […] The final TCPP concentrations were 0.5 nM-1 μM. Samples of TCPP were also prepared in ethanol to be 1 nM-1 μM after dilution 1:200 with PBS (pH 7.4, Lonza, Verviers, Belgium) or with a 6.8 mM citric acid solution (pH ˜4) and bacterial suspension.

[4] = test system: Staphylococcus aureus (strain Newman); assay: as above; format: cell-based
Description: as §5, §1, §6, §7

[5] = test system: Escherichia coli (ATCC 25922); assay: Bacterial studies, blue light 27 J/cm^2 or dark, drop plate CFU (Examples 4-6); format: cell-based
Description: as §5, §1, §6, §7

[6] = test system: C. albicans (ATCC CRM-10231); assay: Antifungal toxicity studies, blue light 27 J/cm^2 or dark (Example 8); format: cell-based, Candida albicans
Description: Briefly, the components of each NADES (see Table 13) were mixed and dissolved in a round flask with 50 ml of warm water ( 50° C.) before evaporation of the solvent at 45° C. for 15 min with a rotatory evaporator. The pure […] 35 and NADES 39 were mixed undiluted or after dilution 1:50 with phosphate buffered saline (PBS, Lonza, Verviers, Belgium) with the yeast suspension (1:1) in the toxicity studies. […] The concentrations of the excipients were the same as in the respective NADES after evaporation of unbound water. The solutions were diluted totally 1:1 or 1:100 with PBS and yeast suspension in the toxicity studies. […] The overnight cultures were centrifuged (4000 g, 22° C., 10 min), the medium replaced and diluted with PBS to OD600 0.1.

[7] = test system: P. aeruginosa (ATCC 9027); assay: Phototoxicity studies, blue light 27 J/cm^2 or dark (Example 7); format: cell-based, Pseudomonas aeruginosa; details: for % survival (27 J/cm^2) / % survival (dark): ±SD, n = 4; for toxicity to P. aeruginosa: individual components of NADES 35, dilution 1:800
Description: as §1, §2, §3, §4

[8] = test system: K. pneumoniae (ATCC 31844); assay: as above; format: cell-based, Klebsiella pneumoniae; details: ±SD, n = 4; for % survival (27 J/cm^2): Dilution 1:200, blue light; for % survival (dark): Dilution 1:200, no irradiation
Description: as §1, §2, §3, §4

## O [water]
[1]
  ENR: 48.2 kcal/mol

## CO [methanol]
[1]
  ENR: 51.9 kcal/mol

## O=C(O)CC(O)(CC(=O)O)C(=O)O [Citric acid]
[2]
  % survival (9.5 J/cm^2): 0.1 ± 0.0%
  % survival (dark): 0.7 ± 0.3%
[3]; 2.7 M solution, dilution ratios 1:1 up to 1:100
  toxicity to E. faecalis: toxic
[3]; dilution 1:200, total treatment 30 min
  toxicity to E. faecalis: did not reduce the number of viable colony forming units
[4]; dilution 1:1 with bacterial suspension
  toxicity / eradication of S. aureus: complete eradication
[4]; dilution 1:100
  toxicity to S. aureus: not toxic anymore
[5]; dilution 1:1, with and without blue light
  toxicity / eradication of E. coli: very toxic
[5]; dilution 1:100 (up to 1:100) with PBS, blue light
  phototoxicity to E. coli: killed all the bacteria present
[6]; 2.7 M diluted 1:1
  reduction in viable C. albicans after incubation in the dark: slight, though significant, reduction
[6]; 2.7 M diluted 1:1, 27 J/cm^2 blue light
  reduction in viable C. albicans after light treatment: 73±8%
[7]; Dilution 1:400, blue light
  % survival (27 J/cm^2): 6 ± 2%
[7]; Dilution 1:400, no irradiation
  % survival (dark): 37 ± 9%
[7]
  toxicity to P. aeruginosa: not toxic at all
[8]
  % survival (27 J/cm^2): 145 ± 2%
  % survival (dark): 38 ± 18%

## OC[C@@H](O)[C@H](O)[C@@H](O)CO [Xylitol]
[2]
  % survival (9.5 J/cm^2): 118 ± 12%
  % survival (dark): 98 ± 10%
[5]; choline chloride 5 M, xylitol […]
  toxicity of NADES 26 components to E. coli: non-toxic
[6]; 2.1 M fructose, […] xylitol, […] sucrose, 5 M choline chloride diluted 1:1 or 1:100, dark or light, p>0.05
  reduction in viable C. albicans: No significant reduction
[7]; Dilution 1:200, blue light
  % survival (27 J/cm^2): 143 ± 17%
[7]; Dilution 1:200, no irradiation
  % survival (dark): 140 ± 19%
[7]
  toxicity to P. aeruginosa: not toxic at all
[8]
  % survival (27 J/cm^2): 74 ± 17%
  % survival (dark): 72 ± 19%
